Entries after “also recorded” stand apart in the source; their conditions may differ.
Experiments:
Format in all cases: in vivo, human
VNO [1] = experiment: Electro-vomeronasogram (EVG) (Example 57); details: for organ response (EVG data): additional tests on 13 estranes; for EVG response in female subjects: 30 female subjects (ages 20-45), FIG. 6B; for EVG response to olfactants delivered to the VNO: male and female subjects, 400 fmoles, FIG. 7B; for EVG response in the male VNO: male subjects, FIG. 6A and FIG. 7
Method: The following electrophysiological studies were performed in 60 clinically normal human volunteers of both sexes (30 male and 30 female) whose ages ranged from 20 to 45 years. No anesthetics were used, and female subjects were excluded if pregnant.
(§1) The stimulation and recording system consists of a “multifunctional miniprobe” described elsewhere (Monti-Bloch, L. and Grosser, B. l. (1991) “Effect of putative pheromones on the electrical activity of the human vomeronasal organ and olfactory epithelium,” J. Steroid Biochem. Molec. Biol. 39:573-582.). The recording electrode is a 0.3 mm silver ball attached to a small (0.1 mm) silver wire insulated with Teflon© the surface of the electrode is first treated to produce a silver chloride interface, and is then covered with gelatin It is positioned within a small caliber Teflon© catheter (dia=5 mm) such that the tip of the electrode protrudes approximately 2 mm. The Teflon© catheter is 10 cm in length and constitutes the terminal extension for a multichannel delivery system which delivers a continuous air stream carrying discreet pulses of chemosensory stimuli. The air stream first passes into a small chamber and is bubbled through a solution containing either a vomeropherin or an olfactant in a diluent or the diluent alone. A solenoid is used to rapidly redirect the air stream from the chamber to a route which bypasses the chamber. This creates a discreet pulse of stimulant in the air stream. A second, outer Teflon® tube with a diameter of 2 mm surrounds the catheter-electrode assemblage, and its central end is connected to an aspirator that provides continuous suction of 3 ml/s. This concentric arrangement of the outer suction tube allows the emitted chemosensory stimuli to be localized to an area we call a “minifield” (approx. dia=1 mm), and it avoids diffusion of substances either to the area outside the intended stimulation site or into the respiratory system. The entire stimulating and recording assemblage may be positioned either on the neurosensory epithelium within the VNO, or on the surface of the olfactory or respiratory epithelium.
Electro-vomeronasogram (EVG): Recordings are carried out in a quiet room with the subject supine; the multi-functional miniprobe is initially stabilized within the nasal cavity using a nasal retractor placed in the vestibule. Reference and ground electrodes consist of silver discs (8 mm), both of which are positioned on the glabella.
The entrance to the VNO, or vomeronasal pit, is identified by first dilating the nasal aperture and vestibule. A 6× magnifying binocular loupe with halogen illumination is then used to introduce the tip of the Teflon® catheter and recording electrode assemblage into the VNO opening where it is stabilized at an approximate depth of 1 mm within the vomeronasal passage. Optimal placement of the recording electrode is signaled after testing for an adequate depolarization in response to a test substance.
Electrical signals from the recording electrode are fed to a DC amplifier after which they are digitized, computer monitored, and stored. The peak-to-peak amplitude of the signals is measured, and the area under the depolarization wave is integrated, while continuously monitoring the signal both on the computer screen and on a digital oscilloscope. Artifacts produced by respiratory movements are deleted by training the subjects to practice mouth breathing with velopharyngeal closure.
(§2) Chemosensory Stimulants: Olfactory test substances are cineole, and 1-carvone; vomeropherins are A, B, C, E and F. (Vomeropherins were supplied by Pherin Corporation, Menlo Park, Calif.), Samples of vomeropherins In. concentration of 25-800 fmoles are delivered in the continuous air stream for durations from 300 milliseconds to 1 second. Usually, intervals of 3 to 5 minutes separated each series of short test pulses. […]

VNO [2] = experiment: Cortical activity (EEG) on VNO stimulation with vomeropherins; details: for EEG-beta activity / EEG-alpha activity: additional tests on 13 estranes of Chart 1
Method: (§3) Cortical evoked activity was induced by VNO stimulation with vomeropherins, and olfactory stimulation with odorants delivered in 300 ms air pulses. It was recorded using standard electroencephalographic (EEG) electrodes placed at positions Cz-A1 and Tz-A1 of the international […] system; the ground electrode was placed on the mastoid process. Electrodermal activity (EDA) was recorded using standard 8 mm silver electrodes in contact with palmar skin of the medial and ring fingers, respeCtively, through a conductive gel interface. Skin temperature (ST) was recorded by a small (1.0 mm) thermistor probe placed in the right ear lobe. Peripheral arterial pulse (PAP) was monitored with a plethysmograph attached to the tip of the index finger. Respiratory frequency (RF) was measured with an adjustable strain gauge placed around the lower thorax. All electrical signals were DC amplified, digitized (MP-100, Biopac Systems) and continuously monitored utilizing a computer.
(§4) Statistical Analysis: EVGs or EOGS, peak-to-peak changes and frequency changes of other parameters were measured and statistically analyzed. The significance of the results was determined by either using paired t-tests or analysis of variance (ANOVA).
[…] […] Synchronization of the EEG was sustained for 1.5 to 2.7 minutes after application of a single pulse of active substance.

VNO [3] = experiment: Skin temperature (ST) on vomeropherin stimulation of the VNO
Method: as §3, §4
In female subjects vomeropherins produced changes in EDA and ST with a greater standard deviation than in males.

VNO [4] = experiment: Electrodermal activity (EDA) on vomeropherin stimulation of the VNO; details: n=30, p<0.01; for electrodermal activity (EDA): female subjects
Method: as §3, §4
Reflex Effects of Vomeropherins: Studies were conducted to determine the central nervous system (CNS) reflex responses to vomeropherin stimulation of the VNO. The sexually dimorphic local responses induced by vomeropherins (FIGS. 6A and B) were mirrored in the autonomic response of male & female subjects. […] In female subjects.

VNO [5] = experiment: Autonomic responses to Estrene stimulation of the VNO (Example 54); details: 40 male subjects, 1 second pulse
Method: Various autonomic parameters were monitored while 1,3,5(10),16-Estratetraen-3-yl-acetate was administered to 40 male subjects using the procedure described in Example 20. Propylene glycol was also administered as a control. The ligand was administered as a 1 second pulse. The change in autonomic function was first noted within 2 seconds and lasted for up to 45 seconds.

[6] = tested on: olfactory epithelium (OE); experiment: Electro-olfactgram (EOG) (Example 57); details: 20 subjects (10 males, 10 females); 200 fmoles vomeropherins, 400 fmoles olfactants; one second pulses; FIG. 7A
Source text: as §1, §2, §4
Effects of Vomeropherins on the EOG: The summated receptor potential from the olfactory epithelium (OE) was recorded in 20 subjects: 10 males and 10 females. […]

[7] = females, single pulse 200 fmoles, FIG. 6F
[8] = 30 female subjects, p<0.01 compared to A and C, FIG. 6H

C[C@@]12C=CC[C@H]1[C@@H]1CCC3=CC(=O)CC[C@]3(O)[C@H]1CC2 [E7/N1, 10-HYDROXYESTRA-4,16-DIEN-3-ONE]
organ response (EVG data) (VNO [1]; men, FIG. 21A): excellent organ response | organ response (EVG data) (VNO [1]; women, FIG. 20A): excellent organ response | EEG-beta activity (VNO [2]; men, FIGS. 22-34 A): high EEG-betain men | EEG-alpha activity (VNO [2]; women, FIGS. 22-34 B): best EEG-alpha activity in women; also recorded: high EEG-alpha in women

COC1=CCC2=C(CC[C@@H]3[C@@H]2CC[C@]2(C)C=CC[C@@H]32)C1 [E8/N1, 3-METHOXYESTRA-2,5(10),16-TRIENE]
EEG-beta activity (VNO [2]; men, FIGS. 22-34 A): best EEG-beta activity in men

CC(=O)Oc1ccc2c(c1)CC[C@@H]1[C@@H]2CC[C@]2(C)C=CC[C@@H]12 [A, 1,3,5(10),16-Estratetraen-3-yl acetate]
EVG response in female subjects (VNO [1]; 100 fmoles): small effect that was significantly different from F | EVG average response (mean) (VNO [1]; male subjects (ages 20 to 38), 100 fmoles, 1 second pulses, FIG. 6A): 11.4 mV | alpha cortical activity (VNO [2]; males, 200 fmoles, air pulses 300 ms to 1 sec, FIG. 6E): significantly increased alpha cortical activity; also recorded: strongest effect | skin temperature (ST) (VNO [3]; 30 male subjects, p<0.01, FIG. 6G): significant increase in skin temperature | skin resistance (electrodermal activity, EDA) (VNO [4]; male subjects, FIG. 6C): decreased skin resistance | duration of change in autonomic function (VNO [5]): up to 45 seconds | time at which change in autonomic function was first noted (VNO [5]): ≤ 2 s | integrated receptor potential in the VNO (VNO [5]; compared to propylene glycol control, FIG. 4A): significant change | galvanic skin response (VNO [5]; compared to propylene glycol control, FIG. 4B): significant change | skin temperature (VNO [5]; compared to propylene glycol control, FIG. 4C): significant change

C=C(C)C1CC=C(C)C(=O)C1 (centres unmarked) [1-carvone]
EVG response to olfactants delivered to the VNO (VNO [1]): only a minor local response in the VNO; also recorded: do not induce a significant EVG response | EOG local response of the OE [6]: strong response in both men and women; also recorded: significant (p<0.01) local response

C[C@@]12C=CC[C@H]1[C@@H]1C[C@@H](O)c3cc(O)ccc3[C@H]1CC2 [E12/N1, ESTRA-1,3,5(10),16-TETRAEN-3,6β-DIOL]
EEG-alpha activity (VNO [2]; men, FIGS. 22-34 A): best EEG-alpha activity in men

C[C@@]12C=CC[C@H]1[C@@H]1CCC3=CC(=O)CC[C@]3(C)[C@H]1CC2 [B, Androsta-4,16-dien-3-one, reference compound]
EVG response in the male VNO (VNO [1]; 100 fmoles): significantly reduced responses | alpha cortical activity (VNO [2]; [7]): increased alpha cortical | skin temperature (ST) (VNO [3]; [8]): significant increase in skin temperature | electrodermal activity (EDA) (VNO [4]): greater decrease in EDA than A or C | EOG local response of the OE [6]: only vomeropherin having significant effect in the OE; also recorded: significant (p<0.01) local response

CC12CCC(CC1)C(C)(C)O2 [cineole]
EVG response to olfactants delivered to the VNO (VNO [1]): only a minor local response in the VNO; also recorded: do not induce a significant EVG response | EOG local response of the OE [6]: strong response in both men and women; also recorded: significant (p<0.01) local response

C[C@@]12C=CC[C@H]1[C@@H]1CCC3=C[C@@H](O)CC[C@]3(C)[C@H]1CC2 [F, Androsta-4,16-dien-3β-ol, reference compound]
EVG response in female subjects (VNO [1]; 100 fmoles): produced the most significant differences within the group | EVG response in the male VNO (VNO [1]; 100 fmoles): significantly reduced responses | alpha cortical activity (VNO [2]; [7]): increased alpha cortical | skin temperature (ST) (VNO [3]; [8]): significant increase in skin temperature | electrodermal activity (EDA) (VNO [4]): greater decrease in EDA than A or C

C[C@@]12C=CC[C@H]1[C@@H]1CCC3=C[C@H](O)CC[C@]3(C)[C@H]1CC2 [E, Androsta-4,16-dien-3α-ol]
EVG response in female subjects (VNO [1]; 100 fmoles): does not stimulate the VNO in female subjects | EOG local response of the OE [6]: stronger olfactory effect than does F; also recorded: significant (p<0.01) local response

From patent US6352980B1, “Estrenes for inducting hypothalamic effects” (Pherin Pharmaceuticals, Inc., priority 1991, dated 2002)
